From patent US8871753B2, “Macrocyclic compounds and their use as kinase inhibitors” (Incyte Corporation, priority 2008, dated 2014)
Structures can show the parent of a compound that is named as a salt. Where two headings read alike, the source gives them in different places.

Experiments:
Format in all cases: biochemical
[1] = molecular target: T1, human JAK2 (a.a. 828-1132) (Homo sapiens, UniProt O60674); test: In vitro JAK kinase assay (HTRF, phosphorylation of a biotinylated peptide), JAK2
T1 construct: JAK2 (a.a. 828-1132); His tag (N); made in house; host or cells: insect cells (baculovirus)
T1 sequence (O60674 828-1132): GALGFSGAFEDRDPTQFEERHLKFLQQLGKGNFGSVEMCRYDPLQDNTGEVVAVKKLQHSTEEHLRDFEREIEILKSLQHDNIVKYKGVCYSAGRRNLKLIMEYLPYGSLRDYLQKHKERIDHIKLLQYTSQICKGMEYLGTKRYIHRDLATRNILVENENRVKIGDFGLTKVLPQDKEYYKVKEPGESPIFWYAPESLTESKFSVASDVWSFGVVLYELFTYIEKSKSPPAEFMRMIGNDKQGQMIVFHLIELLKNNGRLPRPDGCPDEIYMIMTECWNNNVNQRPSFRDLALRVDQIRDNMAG
Summary of the method: (§1)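 Kinase activity was measured as phosphorylation of a biotinylated peptide, with ATP at 90 μM for JAK1, 30 μM for JAK2 and 3 μM for JAK3. Reactions ran 1 hr at room temperature, were stopped with EDTA plus SA-APC and Eu-Py20, and were read by HTRF after 40 minutes of antibody binding.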

[2] = molecular target: T2, human JAK1 (a.a. 837-1142) (Homo sapiens, UniProt P23458); test: In vitro JAK kinase assay (HTRF, phosphorylation of a biotinylated peptide), JAK1; settings: read-out: JAK1 IC50
T2 construct: human JAK1 (a.a. 837-1142); His tag (N); made in house; host or cells: insect cells (baculovirus)
T2 sequence (P23458 849-1154): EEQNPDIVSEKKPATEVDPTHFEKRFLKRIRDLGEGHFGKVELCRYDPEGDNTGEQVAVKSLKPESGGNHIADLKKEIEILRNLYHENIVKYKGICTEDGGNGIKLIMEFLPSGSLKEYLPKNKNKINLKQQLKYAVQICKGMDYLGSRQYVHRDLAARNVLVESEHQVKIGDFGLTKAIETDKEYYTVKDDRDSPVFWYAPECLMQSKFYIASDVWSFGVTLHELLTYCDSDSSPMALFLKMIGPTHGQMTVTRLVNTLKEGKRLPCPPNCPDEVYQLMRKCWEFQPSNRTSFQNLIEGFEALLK
Summary of the method: as §1

[3] = molecular target: T3, human JAK3 (a.a. 781-1124) (Homo sapiens, UniProt P52333); test: In vitro JAK kinase assay (HTRF, phosphorylation of a biotinylated peptide), JAK3
T3 construct: JAK3 (a.a. 781-1124); His tag (N); made in house; host or cells: insect cells (baculovirus)
T3 sequence (P52333 781-1124): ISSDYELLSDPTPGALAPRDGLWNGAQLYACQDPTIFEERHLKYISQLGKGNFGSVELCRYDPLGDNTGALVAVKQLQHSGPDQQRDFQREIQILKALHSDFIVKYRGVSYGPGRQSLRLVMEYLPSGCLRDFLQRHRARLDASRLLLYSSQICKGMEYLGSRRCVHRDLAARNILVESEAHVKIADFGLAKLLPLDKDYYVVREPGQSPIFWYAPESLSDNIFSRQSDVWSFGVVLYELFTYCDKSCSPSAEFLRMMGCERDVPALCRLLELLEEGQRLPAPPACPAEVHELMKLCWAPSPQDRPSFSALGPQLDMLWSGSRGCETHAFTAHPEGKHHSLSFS
Summary of the method: as §1

[4] = molecular target: TYK2 (Homo sapiens, UniProt P29597); test: TYK2 kinase inhibition (Table A1)
Sequence of TYK2 (P29597 whole entry): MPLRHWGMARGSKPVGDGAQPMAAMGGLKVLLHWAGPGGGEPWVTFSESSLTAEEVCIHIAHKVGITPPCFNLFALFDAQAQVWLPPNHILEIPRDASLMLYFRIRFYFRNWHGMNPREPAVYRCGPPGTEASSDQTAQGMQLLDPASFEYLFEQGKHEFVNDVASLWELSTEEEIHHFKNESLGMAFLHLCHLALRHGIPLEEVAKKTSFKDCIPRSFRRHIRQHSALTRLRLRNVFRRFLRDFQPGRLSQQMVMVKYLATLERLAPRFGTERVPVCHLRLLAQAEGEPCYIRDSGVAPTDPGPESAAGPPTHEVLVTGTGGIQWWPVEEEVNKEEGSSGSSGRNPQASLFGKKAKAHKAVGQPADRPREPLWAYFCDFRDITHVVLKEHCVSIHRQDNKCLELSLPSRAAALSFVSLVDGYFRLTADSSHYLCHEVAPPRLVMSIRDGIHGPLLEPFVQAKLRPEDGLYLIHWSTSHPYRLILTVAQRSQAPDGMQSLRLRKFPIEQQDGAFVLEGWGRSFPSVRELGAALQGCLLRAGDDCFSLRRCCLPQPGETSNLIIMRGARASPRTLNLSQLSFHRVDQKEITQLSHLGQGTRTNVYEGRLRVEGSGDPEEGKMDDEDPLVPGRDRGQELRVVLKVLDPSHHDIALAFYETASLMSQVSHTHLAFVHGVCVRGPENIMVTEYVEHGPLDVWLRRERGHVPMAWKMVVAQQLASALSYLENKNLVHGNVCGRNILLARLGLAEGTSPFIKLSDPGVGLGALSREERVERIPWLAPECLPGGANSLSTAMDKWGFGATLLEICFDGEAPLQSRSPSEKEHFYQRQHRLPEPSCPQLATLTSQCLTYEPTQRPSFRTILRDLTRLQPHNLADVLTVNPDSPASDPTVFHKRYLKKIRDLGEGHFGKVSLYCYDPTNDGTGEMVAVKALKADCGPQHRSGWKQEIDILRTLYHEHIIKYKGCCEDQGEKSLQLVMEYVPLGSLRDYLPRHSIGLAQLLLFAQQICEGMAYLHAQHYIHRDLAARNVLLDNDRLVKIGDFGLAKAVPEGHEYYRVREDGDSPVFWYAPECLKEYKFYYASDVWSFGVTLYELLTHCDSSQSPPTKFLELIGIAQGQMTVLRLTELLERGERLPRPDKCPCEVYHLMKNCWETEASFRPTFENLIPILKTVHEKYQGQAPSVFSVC

[5] = molecular target: T4, Recombinant Human Anaplastic Lymphoma Kinase (Homo sapiens, UniProt Q9UM73); test: ALK HTRF kinase assay
T4 construct: purchased Invitrogen, Carlsbad, Calif
T4 sequence (Q9UM73 19-1620): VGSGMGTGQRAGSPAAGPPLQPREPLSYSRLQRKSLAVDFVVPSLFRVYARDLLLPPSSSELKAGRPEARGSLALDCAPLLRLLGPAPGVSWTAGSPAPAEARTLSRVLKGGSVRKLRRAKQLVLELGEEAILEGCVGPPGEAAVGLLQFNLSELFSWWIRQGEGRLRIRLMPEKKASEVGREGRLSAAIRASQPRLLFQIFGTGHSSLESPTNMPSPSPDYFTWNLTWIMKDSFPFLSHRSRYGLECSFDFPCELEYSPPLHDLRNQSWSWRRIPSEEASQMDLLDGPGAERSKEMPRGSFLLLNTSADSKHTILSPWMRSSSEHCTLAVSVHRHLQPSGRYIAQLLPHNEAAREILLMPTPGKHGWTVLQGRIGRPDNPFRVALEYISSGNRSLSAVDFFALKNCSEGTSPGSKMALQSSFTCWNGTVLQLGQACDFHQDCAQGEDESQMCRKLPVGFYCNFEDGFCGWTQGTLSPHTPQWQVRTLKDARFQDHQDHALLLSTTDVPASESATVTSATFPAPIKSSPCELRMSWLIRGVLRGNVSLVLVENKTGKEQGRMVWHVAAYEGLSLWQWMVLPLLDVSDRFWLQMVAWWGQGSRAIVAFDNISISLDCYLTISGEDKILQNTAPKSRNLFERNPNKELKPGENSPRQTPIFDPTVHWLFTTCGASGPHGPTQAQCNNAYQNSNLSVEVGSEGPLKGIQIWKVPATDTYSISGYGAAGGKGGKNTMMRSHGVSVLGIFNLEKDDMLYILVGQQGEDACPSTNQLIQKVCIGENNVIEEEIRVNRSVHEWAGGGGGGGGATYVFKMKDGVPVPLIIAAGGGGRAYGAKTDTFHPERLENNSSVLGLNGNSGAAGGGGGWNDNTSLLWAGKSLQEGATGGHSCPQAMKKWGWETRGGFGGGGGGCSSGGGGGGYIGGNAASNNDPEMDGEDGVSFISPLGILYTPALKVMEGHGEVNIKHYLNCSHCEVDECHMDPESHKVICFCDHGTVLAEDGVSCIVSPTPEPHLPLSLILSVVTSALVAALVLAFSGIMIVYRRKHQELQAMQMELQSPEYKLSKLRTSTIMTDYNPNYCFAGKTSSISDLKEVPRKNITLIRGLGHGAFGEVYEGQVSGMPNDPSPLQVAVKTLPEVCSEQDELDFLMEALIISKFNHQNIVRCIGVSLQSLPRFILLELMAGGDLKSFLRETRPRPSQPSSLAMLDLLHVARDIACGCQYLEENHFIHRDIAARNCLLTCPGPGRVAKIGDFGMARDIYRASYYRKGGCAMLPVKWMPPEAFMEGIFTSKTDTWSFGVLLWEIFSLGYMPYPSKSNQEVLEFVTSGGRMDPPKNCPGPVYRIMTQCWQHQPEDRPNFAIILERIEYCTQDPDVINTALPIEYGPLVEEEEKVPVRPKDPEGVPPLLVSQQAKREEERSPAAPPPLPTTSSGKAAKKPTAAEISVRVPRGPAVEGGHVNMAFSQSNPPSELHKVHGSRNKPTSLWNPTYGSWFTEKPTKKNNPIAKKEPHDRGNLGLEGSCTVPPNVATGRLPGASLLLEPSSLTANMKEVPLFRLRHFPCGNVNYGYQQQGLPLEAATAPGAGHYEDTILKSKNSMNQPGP
Summary of the method: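 Recombinant human ALK with biotinylated peptide substrate; phosphorylation detected by HTRF using Eu-labelled anti-phosphotyrosine antibody and streptavidin-allophycocyanin. IC50 from a sigmoidal fit with Hill slope.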

[6] = compound at a concentration of 500 nM or 1 mM (not specified), cells shown as percentage
[7] = method AA1 (30 μM ATP) or AA2 (1000 μM ATP), not stated per value
[8] = method AA1 (90 μM ATP) or AA2 (1000 μM ATP), not stated per value
[9] = method AA1 (3 μM ATP) or AA2 (1000 μM ATP), not stated per value
[10] = compound at 500 nM or 1 mM, 90 μM ATP

Row | IC50 ([1]; Table B1) [nM] | IC50 ([2]; Table B1) [nM] | IC50 ([3]; Table B1) [nM] | IC50 ([4]; Table B1) [nM] | IC50 [1, 7] [nM] | IC50 [2, 8] [nM] | IC50 [3, 9] [nM] | IC50 [4] [nM] | ALK % of inhibition at a concentration of 500 nM or 1 mM [5, 10] [%] | SMILES | further results
1 | 6 | 3.7 | 21 | 5 |  |  |  |  |  | O=C(Nc1ccc2cc1CCc1cccc(c1)Nc1ncc(Cl)c(n1)N2)Nc1ccccc1C(F)(F)F [Example B111, N-[6-Chloro-2,4,8,22-tetraazatetracyclo[14.3.1.1(3,7).1(9,13)]docosa-1(20), 3(22),4,6,9(21),10,12,16,18-nonaen-12-yl]-N′-[2-(trifluoromethyl)phenyl]urea trifluoroacetate] | ALK % of inhibition at a concentration of 500 nM or 1 mM [5, 6]: 14%
2 |  |  |  |  | 68 | 4.2 | > 200 | 55 | 23 | Nc1nc(C(=O)N2CCC(CC(=O)Nc3ccc4cc3CCc3cncc(c3)Nc3ncc(Cl)c(n3)N4)CC2)cs1 [Example A217, 2-{1-[(2-Amino-1,3-thiazol-4-yl)carbonyl]piperidin-4-yl}-N-[6-chloro-2,4,8,18,22-pentaazatetracyclo[14.3.1.1(3,7).1(9,13)]docosa-1(20),3(22),4,6,9(21),10,12,16,18-nonaen-12-yl]acetamide tris(trifluoroacetate)] | 
3 | 0.31 | 0.85 | 4.6 | 1.5 |  |  |  |  |  | CCCS(=O)(=O)Nc1ccc2cc1CCc1cccc(c1)Nc1ncc(Cl)c(n1)N2 [Example B142, N-[6-Chloro-2,4,8,22-tetraazatetracyclo[14.3.1.1(3,7).1(9,13)]docosa-1(20), 3(22),4,6,9(21),10,12,16,18-nonaen-12-yl]propane-1-sulfonamide trifluoroacetate] | IC50 ([5]; Table B1, cells without percent sign): 990 nM
4 | 34 | 11 | 165 | 33 |  |  |  |  |  | O=C(Nc1cccc(C(F)(F)F)c1)Nc1ccc2cc1CCc1cccc(c1)Nc1ncc(Cl)c(n1)N2 [Example B112, N-[6-Chloro-2,4,8,22-tetraazatetracyclo[14.3.1.1(3,7).1(9,13)]docosa-1(20), 3(22),4,6,9(21),10,12,16,18-nonaen-12-yl]-N′-[3-(trifluoromethyl)phenyl]urea trifluoroacetate] | ALK % of inhibition at a concentration of 500 nM or 1 mM [5, 6]: 3.3%
5 | 72 | 90 | 695 | 173 |  |  |  |  |  | O=C(Nc1ccccn1)Nc1ccc2cc1CCc1cccc(c1)Nc1ncc(Cl)c(n1)N2 [Example B253, N-[6-Chloro-2,4,8,22-tetraazatetracyclo[14.3.1.1(3,7).1(9,13)]docosa-1(20),3(22),4,6,9(21),10,12,16,18-nonaen-12-yl]-N′-pyridin-2-ylurea bis(trifluoroacetate)] | ALK % of inhibition at a concentration of 500 nM or 1 mM [5, 6]: 4.9%
6 | 21 | 6 | 213 | 36 |  |  |  |  |  | N#Cc1ccc(C(=O)N2CC[C@H](NC(=O)Nc3ccc4cc3CCc3cccc(c3)Nc3ncc(Cl)c(n3)N4)C2)cc1 [Example B235, N-[6-Chloro-2,4,8,22-tetraazatetracyclo[14.3.1.1(3,7).1(9,13)]docosa-1(20),3(22),4,6,9(21),10,12,16,18-nonaen-12-yl]-N′-[(3S)-1-(4-cyanobenzoyl)pyrrolidin-3-yl]urea trifluoroacetate] | ALK % of inhibition at a concentration of 500 nM or 1 mM [5, 6]: 7.3%
7 | 1.5 | 0.75 | 17 | 2.7 |  |  |  |  |  | COc1ccc(S(=O)(=O)Nc2ccc3cc2CCc2cccc(c2)Nc2ncc(Cl)c(n2)N3)cc1 [Example B156, N-[6-Chloro-2,4,8,22-tetraazatetracyclo[14.3.1.1(3,7).1(9,13)]docosa-1(20), 3(22),4,6,9(21),10,12,16,18-nonaen-12-yl]-4-methoxybenzenesulfonamide trifluoroacetate] | ALK % of inhibition at a concentration of 500 nM or 1 mM [5, 6]: 28%
8 |  |  |  |  | 100 | 20 | > 200 | > 200 | 28 | O=C(CC1CCN(C(=O)c2ccc(F)cc2F)CC1)Nc1ccc2cc1CCc1cccc(c1)Nc1ncc(Cl)c(n1)N2 [Example A204, N-[6-Chloro-2,4,8,22-tetraazatetracyclo[14.3.1.1(3,7).1(9,13)]docosa-1(20),3(22),4,6,9(21),10,12,16,18-nonaen-12-yl]-2-[1-(2,4-difluorobenzoyl)piperidin-4-yl]acetamide trifluoroacetate] | 

Continued, molecule first:

Row | SMILES | IC50 ([1]; Table B1) [nM] | IC50 ([2]; Table B1) [nM] | IC50 ([3]; Table B1) [nM] | IC50 ([4]; Table B1) [nM] | IC50 [1, 7] [nM] | IC50 [2, 8] [nM] | IC50 [3, 9] [nM] | IC50 [4] [nM] | ALK % of inhibition at a concentration of 500 nM or 1 mM [5, 10] [%] | further results
9 | Clc1cnc2nc1Nc1cccc(c1)SSc1cccc(c1)N2 [Example D12, 6-Chloro-14,15-dithia-2,4,8,22-tetraazatetracyclo[14.3.1.1(3,7).1(9,13)]docosa-1(20),3(22),4,6,9(21),10,12,16,18-nonaene trifluoroacetate] |  |  |  |  |  |  |  |  |  | IC50 ([1]; Table D1): 290 nM; IC50 ([2]; Table D1): 178 nM; IC50 ([3]; Table D1): 369 nM; IC50 ([4]; Table D1): 324 nM; IC50 ([5]; Table D1, 90 μM ATP): > 10000 nM
10 | O=C(Nc1ccc2cc1CCc1cccc(c1)Nc1ncc(Cl)c(n1)N2)C1CCN(C(=O)c2ccc3c(c2)OCO3)CC1 [Example A31, 1-(1,3-Benzodioxol-5-ylcarbonyl)-N-[6-chloro-2,4,8,22-tetraazatetracyclo[14.3.1.1(3,7).1(9,13)]docosa-1(20),3(22),4,6,9(21),10,12,16,18-nonaen-12-yl]piperidine-4-carboxamide trifluoroacetate] |  |  |  |  | 49 | 42 | 108 | 115 | 26 | 
11 | CC(C)(C)C(=O)N1CCC(CC(=O)Nc2ccc3cc2CCc2cccc(c2)Nc2ncc(Cl)c(n2)N3)CC1 [Example A88, N-[6-Chloro-2,4,8,22-tetraazatetracyclo[14.3.1.1(3,7).1(9,13)]docosa-1(20),3(22),4,6,9(21),10,12,16,18-nonaen-12-yl]-2-[1-(2,2-dimethylpropanoyl)piperidin-4-yl]acetamide trifluoroacetate] |  |  |  |  | 24 | 14 | 86 | 47 | 22 | 
12 | O=C(CC1CCNC1)Nc1ccc2cc1CCc1cncc(c1)Nc1ncc(Cl)c(n1)N2 (stereo not shown) [Example A105, N-[6-Chloro-2,4,8,18,22-pentaazatetracyclo[14.3.1.1(3,7).1(9,13)]docosa-1(20),3(22),4,6,9(21),10,12,16,18-nonaen-12-yl]-2-pyrrolidin-3-ylacetamide tris(trifluoroacetate)] |  |  |  |  | 40 | 29 | 112 | 44 | 23 | 
13 | Cc1cc(C(=O)N2CCC(CC(=O)Nc3ccc4cc3CCc3cncc(c3)Nc3ncc(Cl)c(n3)N4)CC2)no1 [Example A101, N-[6-Chloro-2,4,8,18,22-pentaazatetracyclo[14.3.1.1(3,7).1(9,13)]docosa-1(20),3(22),4,6,9(21),10,12,16,18-nonaen-12-yl]-2-{1-[(5-methylisoxazol-3-yl)carbonyl]piperidin-4-yl}acetamide bis(trifluoroacetate)] |  |  |  |  | 10 | 0.5 | 128 | 3.4 | 29 | 
14 | c1cc2cc(c1)Nc1ccnc(n1)Nc1cccc(c1)CC2 [Example A3, 2,4,8,22-Tetraazatetracyclo[14.3.1.1(3,7).1(9,13)]docosa-1(20),3(22),4,6,9(21),10,12,16,18-nonaene trifluoroacetate] |  |  |  |  | 15 | 50 | 45 | 55 |  | IC50 ([5]; 90 μM ATP): 2040 nM
15 | O=C(COc1ccc2cc1CCc1cccc(c1)Nc1ncc(Cl)c(n1)N2)N1CCN(C(=O)Nc2ccccc2)CC1 [Example A13, 4-({[6-Chloro-2,4,8,22-tetraazatetracyclo[14.3.1.1(3,7).1(9,13)]docosa-1(20),3(22),4,6,9(21),10,12,16,18-nonaen-12-yl]oxy}acetyl)-N-phenylpiperazine-1-carboxamide trifluoroacetate] |  |  |  |  | 2.6 | 1 | 44 | 42 | 20 | 
16 | Clc1cnc2nc1Nc1cccc(c1)SCCOc1cccc(c1)N2 [Example D11, 6-Chloro-17-oxa-14-thia-2,4,8,24-tetraazatetracyclo[16.3.1.1(3,7).1(9,13)]tetracosa-1(22),3(24),4,6,9(23),10,12,18,20-nonaene trifluoroacetate] |  |  |  |  |  |  |  |  |  | IC50 ([1]; Table D1): 5.4 nM; IC50 ([2]; Table D1): 3.4 nM; IC50 ([3]; Table D1): 24 nM; IC50 ([4]; Table D1): 9.9 nM; IC50 ([5]; Table D1, 90 μM ATP): 480 nM
17 | CS(=O)(=O)N1CCC(CC(=O)Nc2ccc3cc2CCc2cncc(c2)Nc2ncc(Cl)c(n2)N3)CC1 [Example A79, N-[6-Chloro-2,4,8,18,22-pentaazatetracyclo[14.3.1.1(3,7).1(9,13)]docosa-1(20),3(22),4,6,9(21),10,12,16,18-nonaen-12-yl]-2-[1-(methylsulfonyl)piperidin-4-yl]acetamide bis(trifluoroacetate)] |  |  |  |  | 1.9 | 0.5 | 46 | 3.6 | 33 | 
